From US7910780B2, “Method for purifying terephthalaldehyde” (LG Chem, Ltd., priority 2006, dated 2011)

How the values were obtained:
physchem = conditions: organic solvent or mixture
[1] = Solubility of terephthalaldehyde and major impurities in p-xylene and DMSO; conditions: p-xylene, organic solvent or mixture

| solubility (physchem; 100 °C) | solubility ([1]; 25 °C, in p-xylene (25° C.)) | solubility ([1]; 100 °C, in p-xylene (100° C.)) | solubility (physchem; 25 °C) | Compound |
| --- | --- | --- | --- | --- |
| < 20000 µg/mL | – | – | – | O=C(O)c1ccc(C(=O)O)cc1 [TPA, terephthalic acid] |
| – | < 2000 µg/mL | < 20000 µg/mL | – | O=Cc1ccc(C(=O)O)cc1 [4-CBA, 4-carboxybenzaldehyde] |
| < 5000 µg/mL | – | – | < 5000 µg/mL | Oc1ccc(O)cc1 [HQ, hydroquinone] |
| < 20000 µg/mL | – | – | < 2000 µg/mL | O=Cc1ccc(O)cc1 [4-HBA, 4-hydroxybenzaldehyde] |
